Data on six molecules can be found in US20210379112A1, “STEM CELL THERAPY” (PLASTICELL LIMITED, priority 2018, published 2021).

For one test, the system named is UCB derived CD133+ cells. The test is described as follows: Ex vivo expansion of umbilical cord blood CD133+ cells (flow cytometry, counting beads). The format is cell-based, human. As to conditions: for fold expansion of total nucleated cells (TNC) compared to cells grown in basal media / fold expansion of HSC compared to cells grown in basal media / fold expansion of HSC (Lin−, CD38−, CD34+, CD45RA−, CD133+, CD90+, CD49f+) above basal media containing cytokines: UCB cells; for fold expansion of total nucleated cells (TNC) compared to cells grown in basal media: 5 days culture, vs basal media with cytokines, WR1065 added 16-20 h before harvest; for fold expansion of HSC compared to cells grown in basal media / fold expansion of HSC (Lin−, CD38−, CD34+, CD45RA−, CD133+, CD90+, CD49f+) above basal media containing cytokines: 5 days; for fold expansion of HSC compared to cells grown in basal media: result in words, FIG. 7-12; for fold expansion of HSC (Lin−, CD38−, CD34+, CD45RA−, CD133+, CD90+, CD49f+) above basal media containing cytokines: scriptaid 1 μM, WR1065 100 μM, FIG. 3. The text has this:
Human UCB units were collected with written informed pre-consent and ethical approval from Oxford and Berkshire National Research Ethical Committees and studies conducted with approval of the NHSBT research committee. UCB mononuclear cells (MNC) were isolated by density gradient centrifugation on lymphocyte separation medium 1077 (PAA Laboratories, Pasching, Austria; density<1.077 g/ml). CD133+ cells were isolated from the MNC with immunomagnetic beads (Miltenyi Biotec, Germany). After isolation, the cells were cryopreserved in 10% DMSO in FCS (fetal calf serum) and stored at −150° C. in aliquots of 1×10^5 cells/vial. Cells were analysed for the purity of the isolation with flow cytometry on a BD LSR II (BD Biosciences, CA) using CD34-APC, CD133-PE and the appropriate isotype controls (all Miltenyi Biotec). Bone marrow derived CD133+ cells were obtained commercially from Lonza and peripheral blood CD133+ cells were isolated using immunomagnetic beads as above from total peripheral blood mononuclear cells obtained commercially from Lonza Biologies.
Vials from 2 or 3 donors were thawed and pooled in StemSpan ACF media (Stem Cell Technologies) containing 100 ng/mL SCF, 100 ng/mL FLT3LG and 20 ng/mL TPO (all from Miltenyi Biotec). After counting, cells were plated in 96 well round bottom suspension plates at 20,000 cells/well in the above media. Cells were allowed to recover overnight in these conditions in a 37° C. humidified incubator with 5% CO2.
The next day cells were harvested from the plates counted, and seeded into 24 well Nanex plates (Compass Biomedical) or standard tissue culture treated plates at 2500 cells/well in 1 mL basal media (StemSpan ACF with 100 ng/mL SCF, 100 ng/mL FLT3LG and 20 ng/mL TPO) containing an HDAC inhibitor (for most experiments scriptaid was used at a concentration of 1 μM). An aliquot of cells was used for CFU analysis and another for flow cytometry analysis.
After 3 days in culture the media was either replaced or supplemented with fresh media with the cytokines (SCF, TPO and FLT3LG) and the HDAC inhibitors (scriptaid 1 μM). Sixteen to twenty hours prior to harvest WR1065 was added at a concentration of 100 μM. After total of 5 days in expansion, cells are harvested, counted and analysed by flow cytometry.
Cells were harvested, washed and stained in 3% FBS in PBS using a panel of pre-conjugated antibodies. Cells were incubated with antibodies on ice for 30 min, then washed twice in 3% FBS in PBS and resuspended in 250 uL of above buffer before being analysed using a BD Canto II flow cytometer. [Antibody panel was as follows: 5 Lin custom cocktail (CD235a, CD4, CD10, CD11b and CD19) APC-Vio770, CD38-PE-Vio770, CD34-PerCP-Vio700, CD133-PE, CD45RA-VioBlue, CD49f-FITC, CD90-APC (all from Miltenyi Biotec).]
Cell number was measured using flow cytometry with the aid of counting beads (CountBright beads Life Technologies).
(In general: Flow cytometry measures light scatter and fluorescence of single cells or particles in a stream.)

The test system of test [1] is bone marrow derived CD34+ cells. Particulars: pre-treatment of bone marrow derived CD34+ cells, in vitro; background; cited from earlier work.
Another test has as its system irradiated NSG mice. As to the kind of experiment: Repopulation capacity of expanded cord blood cells in immuno-compromised NSG mice (secondary recipients). Particulars: secondary recipient mice, bled at week 8; mice received cord blood cells expanded ex vivo with the substance; FIG. 15. The method, then: The effect of different ex vivo expansion protocols on the ability of the cells to repopulate bone marrow in vivo was investigated. Cells were obtained from cord blood and four cell preparations were produced—1. Unexpanded cells, 2. Cells expanded in the presence of vehicle, 3. Cells expanded in the presence of scriptaid (expanded+SS—FIG. 15), 4. Cells expanded in the presence of scriptaid and WR1065 (expanded+SW—FIG. 15). These cell preparations were then injected into irradiated adult (<8 weeks) male NSG (NOD.Cg-Prkdc^scid II2rcf^Im1Wjl/SzJ) mice. Flow cytometry analysis was performed on blood samples taken at week 15 (CD45^hu & CD45^mu only) to identify animals with evidence of clear engraftment (human CD45+ cells in the blood at week 12, and week 15 human CD45+ count above 1%). Ten of the animals with human CD45+ count above 1%, were used as donors for 10 secondary recipients in one to one manner. At week 20 after cell administration the primary animals were sacrificed. Bone marrow samples were harvested from femurs and tibias and the cells were washed before being counted. 50% of the recovered cells were injected into secondary irradiated animals. In this manner the long term engraftment capabilities of the expanded cells could be determined. The secondary animals were bled at week 8 and whole blood samples analysed by FACs for evidence of engraftment. […]

Setting [2] is: UCB cells from three separate donors and a pooled sample, FIG. 13.

As for `Cc1cc(C)cc(C(=O)NOCCCCCC(=O)NO)c1` [LMK235], in the test on UCB derived CD133+ cells, the “fold expansion of total nucleated cells (TNC) compared to cells grown in basal media” value (“fold expansion of total nucleated cells” below) is “slightly lower” and the “fold expansion of HSC compared to cells grown in basal media” value is listed as “significantly increased”.
As to `Nc1cc(F)ccc1NC(=O)/C=C/c1cnn(C/C=C/c2ccccc2)c1` [RGFP966], in the test with UCB derived CD133+ cells, the “fold expansion of total nucleated cells” value is listed as “increase” and the “fold expansion of HSC compared to cells grown in basal media” value was “similar”.
Consider `CN1CCc2c(c3ccccc3n2Cc2ccc(C(=O)NO)cc2)C1` [Tubastatin A], for which, in the test with UCB derived CD133+ cells, the “fold expansion of total nucleated cells” value is given as “similar” and the “fold expansion of HSC compared to cells grown in basal media” value is recorded as “significantly increased”.
On to `NCCCNCCS` [WR1065], for which the “fold expansion of HSC (Lin−, CD38−, CD34+, CD45RA−, CD133+, CD90+, CD49f+) above basal media containing cytokines” value in the test with UCB derived CD133+ cells was “around 3 fold”. Besides, in test [1], the “enhancement of formation of CFU-GEMM and BFU-E colonies” value was at most 38 fold.
For the molecule `Cn1cc(CNCC2CCN(c3ncc(C(=O)NO)cn3)CC2)c2ccccc21` [quisinostat], in the test on UCB derived CD133+ cells, the “fold expansion of total nucleated cells” value is “slightly lower” and the “fold expansion of HSC compared to cells grown in basal media” value was “significantly increased”.
`O=C(CCCCCN1C(=O)c2cccc3cccc(c23)C1=O)NO` [scriptaid]: the “fold expansion of HSC compared to cells cultured in basal media on different culture surfaces” value with UCB derived CD133+ cells (Nanex scaffolds, TC treated Corning 24 well plates, suspension Greiner Bio 24 well plates, effect similar across surfaces, FIG. 14) is given as “significantly increased”. In the test on UCB derived CD133+ cells (setting [2]), the “fold expansion of HSC compared to cells cultured on basal media, average” value is listed as 30 fold and the “fold expansion of HSC compared to cells cultured on basal media, range” value is 10-55 fold. In the test on UCB derived CD133+ cells, the “fold expansion of total nucleated cells” value is “slightly reduced” and the “fold expansion of HSC (Lin−, CD38−, CD34+, CD45RA−, CD133+, CD90+, CD49f+) above basal media containing cytokines” value is “approximately 10 fold”. In addition, the “proportion of CD133+/CD34+ cells compared to cells grown on cytokines alone” value with UCB derived CD133+ cells (after 5 days in culture) is given as “increase”. Besides, the “average frequency of human CD45+ cells in whole blood, percentage of viable singlets” value in the test on irradiated NSG mice was 0.04%.
